Measured values taken from patent publication US6117975A, “Melanocortin receptor polypeptides MC-3, MC-4, and MC-5” (The Regents of the University of Michigan, priority 1996, dated 2000).

How the values were obtained:
[1] = system: chimeric receptor cH2R/MC3R-3i; assay: [3H] IP production in Hepa cells transfected with chimeric cH2R/hMC3R-3i; assay type: cell-based; conditions: chimeric cH2R/MC3R-3i, Hepa cells
Excerpt: (§1) Chimeric Receptor. […] The chimeric receptor (cH2R/MC3R-3i) was constructed by cassette mutation at the junction of the fifth and sixth transmembrane domains of cH2R. Six PCR primers were used to generate three DNA fragments which were subsequently ligated together. The three PCR-generated fragments consisted of 1) the 5' coding region of the cH2R receptor beginning just prior to the ATG codon and ending with the 3' end of the fifth transmembrane domain; 2) the portion of the MC3 receptor gene encoding its third intracytoplasmic loop; and 3) the 3' coding region of the cH2R beginning with that segment encoding the 5' end of the sixth transmembrane domain and ending slightly past the termination codon. The DNA fragments were cut with appropriate restriction enzymes at pre-engineered restriction sites designed so that the three fragments could be assembled together in only the correct alignment. Restriction sites were also designed to facilitate subcloning the chimeric receptor DNA into CMVneo and the sequencing vector M13. The nucleotide sequence of the CMVneo cH2R/MC3R-3i construct was confirmed prior to expression in Hepa cells.
(§2) Inositol Phosphate (IP) Assays.

[2] = target: T1, wild-type H2-histamine receptor (cH2R) (Canis lupus familiaris, UniProt P17124); conditions: Hepa cells
Excerpt: as §1, §2

[3] = target: T1, wild-type H2-histamine receptor (cH2R); conditions: Hepa cells; remark: listed apart in the source
Excerpt: as §1
(§3) cAMP Assays. A cAMP assay kit purchased from Amersham (TRK 432, Arlington Heights, Ill.) was employed. Transfected cells were grown to confluence in 12-well (2.4×1.7 cm) tissue culture plates. […]

[4] = system: chimeric receptor cH2R/MC3R-3i; conditions: chimeric cH2R/MC3R-3i, Hepa cells
Excerpt: as §1, §3

T1 sequence (P17124 whole entry): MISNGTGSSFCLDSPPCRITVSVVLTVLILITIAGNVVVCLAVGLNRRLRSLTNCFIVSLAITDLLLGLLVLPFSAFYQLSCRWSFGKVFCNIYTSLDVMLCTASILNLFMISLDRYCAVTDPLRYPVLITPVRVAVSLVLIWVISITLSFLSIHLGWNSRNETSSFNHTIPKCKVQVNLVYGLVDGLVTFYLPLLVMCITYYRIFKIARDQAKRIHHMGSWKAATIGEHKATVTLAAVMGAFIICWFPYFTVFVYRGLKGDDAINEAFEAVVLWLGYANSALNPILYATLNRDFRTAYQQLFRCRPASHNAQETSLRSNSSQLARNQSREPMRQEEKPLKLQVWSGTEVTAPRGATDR

- cAMP dose-response (in words) [4]: monophasic cAMP dose-response curve
SMILES: NCCc1c[nH]cn1 [histamine]
- [3H]-IP production dose-response (in words) [1]: biphasic dose-response curve for [^3 H]-IP production
- [3H]-IP production dose-response (in words) [2]: monophasic dose-dependent increases in both cAMP and [^3 H]-IP production
- cAMP dose-response (in words) [3]: monophasic dose-dependent increases in both cAMP and [^3 H]-IP production
